≈ marks a conversion by molar mass, not a printed value.
How the values were obtained:
Methionine--tRNA ligase = Methionine--tRNA ligase (Staphylococcus aureus subsp. aureus MW2, UniProt Q8NY00); test: Inhibitory concentration against Staphylococcus aureus methionyl tRNA synthetase
Enterococcus faecalis [1] = test: Antibacterial activity against Enterococcus faecalis 1; assay type: functional
Staphylococcus aureus [2] = test: Antibacterial activity against Staphylococcus aureus Oxford; assay type: functional
Enterococcus faecium = test: Concentration required to inhibit 90% population of Enterococcus faecium; assay type: functional
Enterococcus faecalis [3] = test: Concentration required to inhibit 90% population of Enterococcus faecalis; assay type: functional
Staphylococcus aureus [4] = test: Concentration required to inhibit 90% population of Staphylococcus aureus; assay type: functional
[5] = system: Staphylococcus epidermidis; test: Concentration required to inhibit 90% population of Staphylococcus epidermidis; assay type: functional

Chain of Methionine--tRNA ligase (Q8NY00 whole entry): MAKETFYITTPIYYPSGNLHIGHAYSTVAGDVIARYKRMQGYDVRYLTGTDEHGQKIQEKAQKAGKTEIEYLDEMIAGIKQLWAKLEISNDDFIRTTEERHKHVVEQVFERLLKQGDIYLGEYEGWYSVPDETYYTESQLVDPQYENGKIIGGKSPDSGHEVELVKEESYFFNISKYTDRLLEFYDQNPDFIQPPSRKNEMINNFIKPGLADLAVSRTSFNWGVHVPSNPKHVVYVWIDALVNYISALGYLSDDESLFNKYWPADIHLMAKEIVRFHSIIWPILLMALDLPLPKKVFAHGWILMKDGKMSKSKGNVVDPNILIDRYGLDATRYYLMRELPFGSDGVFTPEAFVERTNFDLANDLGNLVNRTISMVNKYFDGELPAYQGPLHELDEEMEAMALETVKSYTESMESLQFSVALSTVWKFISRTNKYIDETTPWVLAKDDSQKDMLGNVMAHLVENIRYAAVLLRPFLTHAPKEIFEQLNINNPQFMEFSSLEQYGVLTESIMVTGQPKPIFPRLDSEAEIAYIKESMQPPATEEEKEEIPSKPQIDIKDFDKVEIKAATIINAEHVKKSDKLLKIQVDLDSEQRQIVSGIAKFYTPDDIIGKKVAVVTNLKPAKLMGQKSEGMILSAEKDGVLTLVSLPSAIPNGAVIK

Molecule `Oc1cc(NCCCNCc2cc(Cl)cc(Cl)c2Cl)nc2ccccc12` has an IC50 (Methionine--tRNA ligase) of under 3 nM.

`Oc1cc(NCCCNCc2cc(Br)cc(Br)c2)nc2ccccc12` gave an MIC (Enterococcus faecalis [1]) of at most 0.06 µg/mL, an MIC (Staphylococcus aureus [2]) of 0.25 µg/mL (≈ 0.537 µM) and an IC50 (Methionine--tRNA ligase) of under 3 nM.

Molecule `Oc1nc(NCCCNC2CCNc3c(Cl)cc(Br)cc32)nc2ccsc12` (centres undefined) has an MIC (Enterococcus faecalis [1]) of at most 0.06 µg/mL, an MIC (Staphylococcus aureus [2]) of at most 0.06 µg/mL and an IC50 (Methionine--tRNA ligase) of under 3 nM.

`CCOc1c(Br)cc(Br)cc1CNCCCNc1nc2ccccc2[nH]1` showed an MIC (Enterococcus faecalis [1]) of 0.25 µg/mL (≈ 0.518 µM), an MIC (Staphylococcus aureus [2]) of 1 µg/mL (≈ 2.07 µM) and an IC50 (Methionine--tRNA ligase) of 17 nM.

Work on `CCOc1c(Cl)cc(Cl)cc1CNCCCNc1nc(O)c2sccc2n1` yielded an MIC (Enterococcus faecalis [1]) of 0.13 µg/mL (≈ 0.304 µM), an MIC (Staphylococcus aureus [2]) of 0.25 µg/mL (≈ 0.585 µM) and an IC50 (Methionine--tRNA ligase) of under 3 nM.

In the case of `CCOc1c(Br)cc(Cl)cc1CNCCCNc1nc(O)c2sccc2n1`, the MIC (Enterococcus faecalis [1]) is reported as 0.13 µg/mL (≈ 0.276 µM), the MIC (Staphylococcus aureus [2]) is reported as 0.13 µg/mL (≈ 0.276 µM) and the IC50 (Methionine--tRNA ligase) is reported as under 3 nM.

Molecule `Clc1cc(Cl)c(Cl)c(CNCCCNc2ccc3ccccc3n2)c1` has an IC50 (Methionine--tRNA ligase) of 100 nM.

`CCc1cc(I)c2c(c1)C(NCCCNc1nc(O)c3sccc3n1)CCN2` (centres undefined) was tested, and the MIC (Enterococcus faecalis [1]) was 0.5 µg/mL (≈ 0.982 µM), the MIC (Staphylococcus aureus [2]) was at most 0.06 µg/mL and the IC50 (Methionine--tRNA ligase) was under 3 nM.

In the case of `Brc1cc(Br)c2c(c1)C(NCCCNc1nc3ncccc3[nH]1)CCN2` (centres undefined), the MIC90 (Enterococcus faecium) is reported as 0.03 µg/mL (≈ 0.0625 µM), the MIC90 (Enterococcus faecalis [3]) is reported as 0.06 µg/mL (≈ 0.125 µM) and the MIC90 (Staphylococcus aureus [4]) is reported as 1 µg/mL (≈ 2.08 µM). It also gave an MIC90 [5] of 0.5 µg/mL (≈ 1.04 µM), an MIC (Enterococcus faecalis [1]) of at most 0.06 µg/mL and an MIC (Staphylococcus aureus [2]) of at most 0.06 µg/mL. The IC50 (Methionine--tRNA ligase) was 11 nM.

`Brc1cc(Br)cc(CNCCCNc2nc3ccccc3[nH]2)c1` gave an MIC (Enterococcus faecalis [1]) of 0.13 µg/mL (≈ 0.297 µM), an MIC (Staphylococcus aureus [2]) of 1 µg/mL (≈ 2.28 µM) and an IC50 (Methionine--tRNA ligase) of 29 nM.

`Oc1cc(NCCCNCc2cc(Cl)cc(Cl)c2Cl)cc2ccccc12` was tested, and the IC50 (Methionine--tRNA ligase) was 1800 nM.

Work on `CCOc1c(Br)cc(Br)cc1CNCCCNc1nc2ccccc2c(=O)[nH]1` yielded an MIC (Enterococcus faecalis [1]) of at most 0.06 µg/mL, an MIC (Staphylococcus aureus [2]) of 0.13 µg/mL (≈ 0.255 µM) and an IC50 (Methionine--tRNA ligase) of 9.7 nM.

In the case of `Oc1nc(NCCCNCc2cc(Br)cc(Br)c2)nc2c1CCC2`, the MIC (Enterococcus faecalis [1]) is reported as over 64 µg/mL, the MIC (Staphylococcus aureus [2]) is reported as over 64 µg/mL and the IC50 (Methionine--tRNA ligase) is reported as 580 nM.

`O=C(NCCCNCc1cc(Br)cc(Br)c1)Nc1ccccc1` gave an MIC (Enterococcus faecalis [1]) of 8 µg/mL (≈ 18.1 µM), an MIC (Staphylococcus aureus [2]) of over 64 µg/mL and an IC50 (Methionine--tRNA ligase) of 330 nM.

`CCOc1c(Br)cc(Br)cc1CNCCCNc1nc(O)c2sccc2n1` gave an MIC (Enterococcus faecalis [1]) of at most 0.06 µg/mL, an MIC (Staphylococcus aureus [2]) of 0.13 µg/mL (≈ 0.252 µM) and an IC50 (Methionine--tRNA ligase) of 4.9 nM.

`CCc1cc(I)c2c(c1)C(NCCCNc1nc3ccc[nH]c-3n1)CCN2` (centres undefined) was tested, and the MIC (Enterococcus faecalis [1]) was 1 µg/mL (≈ 2.1 µM), the MIC (Staphylococcus aureus [2]) was 0.25 µg/mL (≈ 0.525 µM) and the IC50 (Methionine--tRNA ligase) was 18 nM.

For `Brc1cc(Br)cc(CNCCCNc2nc3ccc[nH]c-3n2)c1`, the MIC (Enterococcus faecalis [1]) was 0.25 µg/mL (≈ 0.569 µM), the MIC (Staphylococcus aureus [2]) was 0.5 µg/mL (≈ 1.14 µM) and the IC50 (Methionine--tRNA ligase) was 5 nM.

For `CCOc1c(Cl)cc(Cl)cc1CNCCCNc1nc(O)c2ccccc2n1`, the MIC (Enterococcus faecalis [1]) was at most 0.06 µg/mL, the MIC (Staphylococcus aureus [2]) was 0.13 µg/mL (≈ 0.309 µM) and the IC50 (Methionine--tRNA ligase) was under 3 nM.

`CCc1cc(I)c2c(c1)C(NCCCNc1nc3ccccc3[nH]1)CCN2` (centres undefined) gave an MIC (Enterococcus faecalis [1]) of 1 µg/mL (≈ 2.1 µM), an MIC (Staphylococcus aureus [2]) of 0.5 µg/mL (≈ 1.05 µM) and an IC50 (Methionine--tRNA ligase) of 16 nM.

`CCOc1c(Br)cc(OC)cc1CNCCCNc1nc2ccccc2[nH]1` gave an MIC (Enterococcus faecalis [1]) of 0.13 µg/mL (≈ 0.3 µM), an MIC (Staphylococcus aureus [2]) of 1 µg/mL (≈ 2.31 µM) and an IC50 (Methionine--tRNA ligase) of 17 nM.

`N#Cc1c(NCCCNCc2cc(Br)cc(Br)c2)[nH]c2ccccc12` showed an MIC (Enterococcus faecalis [1]) of 0.25 µg/mL (≈ 0.541 µM), an MIC (Staphylococcus aureus [2]) of 0.5 µg/mL (≈ 1.08 µM) and an IC50 (Methionine--tRNA ligase) of 54 nM.

`Brc1cc(Br)c2c(c1)[C@H](NCCCNc1nc3ncccc3[nH]1)CCN2` gave an MIC (Enterococcus faecalis [1]) of at most 0.06 µg/mL, an MIC (Staphylococcus aureus [2]) of at most 0.06 µg/mL and an IC50 (Methionine--tRNA ligase) of 6.3 nM.

With `O=c1cc(NCCCNCc2cc(Cl)cc(Cl)c2Cl)oc2ccccc12` the IC50 (Methionine--tRNA ligase) was 1000 nM.

With `O=c1nc(NCCCNCc2cc(Br)cc(Br)c2)[nH]c2ccsc12` the MIC (Enterococcus faecalis [1]) was at most 0.06 µg/mL, the MIC (Staphylococcus aureus [2]) was 0.5 µg/mL (≈ 1.06 µM) and the IC50 (Methionine--tRNA ligase) was 3.9 nM.

For `CCOc1c(Br)cc(Cl)cc1CNCCCNc1nc(O)c2ccccc2n1`, the MIC (Enterococcus faecalis [1]) was at most 0.06 µg/mL, the MIC (Staphylococcus aureus [2]) was 0.13 µg/mL (≈ 0.279 µM) and the IC50 (Methionine--tRNA ligase) was under 3 nM.

In the case of `Oc1cc(SCCCNCc2ccc(Cl)c(Cl)c2)nc2ccccc12`, the MIC (Staphylococcus aureus [2]) is reported as over 64 µg/mL and the IC50 (Methionine--tRNA ligase) is reported as 680 nM.

With `Brc1cc(Br)c2c(c1)C(NCCCNc1nc3ccccc3[nH]1)CCN2` (centres undefined) the MIC (Enterococcus faecalis [1]) was at most 0.06 µg/mL, the MIC (Staphylococcus aureus [2]) was 0.25 µg/mL (≈ 0.522 µM) and the IC50 (Methionine--tRNA ligase) was 13 nM.

In the case of `Oc1nc(NCCCNCc2cc(Br)cc(Br)c2)nc2sccc12`, the MIC (Enterococcus faecalis [1]) is reported as 32 µg/mL (≈ 67.8 µM), the MIC (Staphylococcus aureus [2]) is reported as over 64 µg/mL and the IC50 (Methionine--tRNA ligase) is reported as 150 nM.

`Oc1cc(-c2ccccc2)nc(NCCCNCc2cc(Br)cc(Br)c2)n1` was tested, and the MIC (Enterococcus faecalis [1]) was over 64 µg/mL, the MIC (Staphylococcus aureus [2]) was over 64 µg/mL and the IC50 (Methionine--tRNA ligase) was over 1000 nM.

`Oc1nc(NCCCNC2CCNc3c(Br)cc(Br)cc32)nc2ccsc12` (centres undefined) was tested, and the MIC (Enterococcus faecalis [1]) was at most 0.06 µg/mL, the MIC (Staphylococcus aureus [2]) was at most 0.06 µg/mL and the IC50 (Methionine--tRNA ligase) was 13 nM.

`CCOc1c(Br)cc(OC)cc1CNCCCNc1nc(O)c2sccc2n1` gave an MIC (Enterococcus faecalis [1]) of at most 0.06 µg/mL, an MIC (Staphylococcus aureus [2]) of 0.25 µg/mL (≈ 0.535 µM) and an IC50 (Methionine--tRNA ligase) of 3.3 nM.

For `CCOc1c(Br)cc(OC)cc1CNCCCNc1nc(O)c2ccccc2n1`, the MIC (Enterococcus faecalis [1]) was at most 0.06 µg/mL, the MIC (Staphylococcus aureus [2]) was 0.13 µg/mL (≈ 0.282 µM) and the IC50 (Methionine--tRNA ligase) was 7 nM.

`Oc1cc(OCCCNCc2ccc(Cl)c(Cl)c2)nc2ccccc12` gave an MIC (Staphylococcus aureus [2]) of 32 µg/mL (≈ 84.8 µM) and an IC50 (Methionine--tRNA ligase) of 38 nM.

For `Oc1cc(NCCCNCc2cc(Br)cc(Br)c2)nc2sccc12`, the MIC (Enterococcus faecalis [1]) was at most 0.06 µg/mL, the MIC (Staphylococcus aureus [2]) was 0.25 µg/mL (≈ 0.531 µM) and the IC50 (Methionine--tRNA ligase) was 6.2 nM.

Molecule `CCOc1c(Cl)cc(Cl)cc1CNCCCNc1nc2ccccc2[nH]1` has an MIC (Enterococcus faecalis [1]) of 0.5 µg/mL (≈ 1.27 µM), an MIC (Staphylococcus aureus [2]) of 2 µg/mL (≈ 5.08 µM) and an IC50 (Methionine--tRNA ligase) of under 3 nM.

`Oc1cc(NCCCNCc2cc(Br)cc(Br)c2)nc2ccsc12` showed an MIC (Enterococcus faecalis [1]) of at most 0.06 µg/mL, an MIC (Staphylococcus aureus [2]) of 0.13 µg/mL (≈ 0.276 µM) and an IC50 (Methionine--tRNA ligase) of 4 nM.

In the case of `CCOc1c(Br)cc(Cl)cc1CNCCCNc1nc2ccccc2[nH]1`, the MIC (Enterococcus faecalis [1]) is reported as 0.5 µg/mL (≈ 1.14 µM), the MIC (Staphylococcus aureus [2]) is reported as 1 µg/mL (≈ 2.28 µM) and the IC50 (Methionine--tRNA ligase) is reported as 3.8 nM.

Molecule `Oc1nc(NCCCNCc2cc(Br)cc(Br)c2)nc2ccccc12` has an MIC (Enterococcus faecalis [1]) of at most 0.06 µg/mL, an MIC (Staphylococcus aureus [2]) of 0.25 µg/mL (≈ 0.536 µM) and an IC50 (Methionine--tRNA ligase) of 8.1 nM.

`CCc1cc(I)c2c(c1)C(NCCCNc1nc(O)c3ccccc3n1)CCN2` (centres undefined) was tested, and the MIC (Enterococcus faecalis [1]) was 0.25 µg/mL (≈ 0.497 µM), the MIC (Staphylococcus aureus [2]) was at most 0.06 µg/mL and the IC50 (Methionine--tRNA ligase) was 17 nM.

Work on `Oc1nc(NCCCNC2CCNc3c(Cl)cc(Br)cc32)nc2ccccc12` (centres undefined) yielded an MIC (Enterococcus faecalis [1]) of at most 0.06 µg/mL, an MIC (Staphylococcus aureus [2]) of at most 0.06 µg/mL and an IC50 (Methionine--tRNA ligase) of 8.2 nM.
